Data: patent publication US20120214862A1, “MODULATION OF FACTOR 7 EXPRESSION” (ISIS Pharmaceuticals, Inc., priority 2009, published 2012)
In the oligonucleotide strings, read from the 5' end, every base follows the letter of its sugar. An asterisk marks phosphorothioate; unmarked linkages are phosphodiester. Other units and linkages are bracketed, terminal groups are in braces. A string of capitals states the bases alone. e = 2'-O-(2-methoxyethyl) (MOE); [5mC] = 5-methylcytosine; d = 2'-deoxy (DNA)

tested on: human Factor 7 mRNA; assay: Antisense inhibition of human Factor 7 mRNA in HepB3 cells, lipofectin, 50 nM, real-time RT-PCR; type: cell-based; conditions: Example 1; HepB3 cells, lipofectin, 50 nM, ~24 h, relative to untreated control cells
Procedure, shortened: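 Percent inhibition, untreated cells as reference: derived from RNA collected about 24 hours post-transfection of 4,000-cell wells, with the human RTS 2927 primer probe set and adjustment for total RNA content (RIBOGREEN®).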

First: 407946 (antisense eT*e[5mC]*e[5mC]*eA*eA*dA*dA*dA*dT*dG*dA*dA*dT*d[5mC]*dA*eT*eG*eG*eG*e[5mC]) [compound 407946]
Second: 407887 (antisense e[5mC]*e[5mC]*eA*eG*eG*d[5mC]*dA*dG*d[5mC]*d[5mC]*d[5mC]*dT*dG*dA*dA*eG*e[5mC]*e[5mC]*e[5mC]*eA) [compound 407887]
The “% Inhibition (human Factor 7 mRNA)” value of the first is lower: 5% for the first, 78% for the second.

Compared with “407911 (antisense e[5mC]*e[5mC]*e[5mC]*e[5mC]*eT*dT*dG*d[5mC]*dA*dG*dG*dA*dG*dT*d[5mC]*e[5mC]*eT*eT*eG*e[5mC]) [compound 407911]”, “403093 (antisense eG*eA*eG*eA*e[5mC]*d[5mC]*d[5mC]*dT*dG*dG*dT*dG*dT*dA*d[5mC]*eA*e[5mC]*e[5mC]*e[5mC]*e[5mC]) [compound 403093]” is higher in “% Inhibition (human Factor 7 mRNA)” value: 74% for the first, 75% for the second.

Going from “407950 (antisense eA*eG*e[5mC]*eT*eT*d[5mC]*d[5mC]*dA*dT*dG*dT*dG*dA*dG*dG*eG*eT*eT*e[5mC]*eA) [compound 407950]” to “407943 (antisense eG*e[5mC]*eA*eG*eG*d[5mC]*dA*d[5mC]*d[5mC]*dA*d[5mC]*dA*dG*dG*dT*eG*eT*eG*e[5mC]*eG) [compound 407943]”, the “% Inhibition (human Factor 7 mRNA)” value falls from 58% to 34%.

Going from “407961 (antisense eA*eA*eG*eT*eA*dG*dA*dT*dG*dA*dT*dG*d[5mC]*d[5mC]*dT*eG*eA*eG*eT*eG) [compound 407961]” to “407897 (antisense eG*e[5mC]*eT*eT*eG*dG*dT*dG*d[5mC]*d[5mC]*d[5mC]*dG*dT*dG*dT*eG*eG*eT*e[5mC]*eA) [compound 407897]”, the “% Inhibition (human Factor 7 mRNA)” value rises from 34% to 77%.

Compared with “407908 (antisense e[5mC]*e[5mC]*e[5mC]*e[5mC]*eA*dG*d[5mC]*d[5mC]*dG*d[5mC]*dT*dG*dA*d[5mC]*d[5mC]*eA*eA*eT*eG*eA) [compound 407908]”, “407596 (antisense eG*eA*eG*eG*e[5mC]*d[5mC]*d[5mC]*d[5mC]*dG*dG*d[5mC]*dT*dT*d[5mC]*d[5mC]*eA*e[5mC]*eG*eG*e[5mC]) [compound 407596]” is higher in “% Inhibition (human Factor 7 mRNA)” value: 47% for the first, 61% for the second.

same assay, conditions: Example 4; HepB3 cells, lipofectin, 50 nM, ~24 h, relative to untreated control

First: 422190 (antisense eG*e[5mC]*eG*d[5mC]*dG*dG*dA*dA*dG*dA*dA*dG*dG*dG*dA*d[5mC]*dG*eG*eA*eA) [compound 422190]
Second: 422269 (antisense eG*eA*dG*d[5mC]*dG*d[5mC]*dG*dG*dA*dA*dG*dA*dA*dG*dG*eG*eA*e[5mC]*eG*eG) [compound 422269]
The “% Inhibition (human Factor 7 mRNA)” value of the first is lower: 12% for the first, 27% for the second.

First: 422267 (antisense eG*e[5mC]*dG*d[5mC]*dG*dG*dA*dA*dG*dA*dA*dG*dG*dG*dA*e[5mC]*eG*eG*eA*eA) [compound 422267]
Second: 422276 (antisense eG*eG*dT*dT*dA*d[5mC]*dT*dG*dA*dG*d[5mC]*dG*d[5mC]*dG*dG*eA*eA*eG*eA*eA) [compound 422276]
The “% Inhibition (human Factor 7 mRNA)” value of the first is lower: 38% for the first, 66% for the second.

In the case of “422121 (antisense eG*e[5mC]*eG*e[5mC]*eG*dG*dA*dA*dG*dA*dA*dG*dG*dG*dA*e[5mC]*eG*eG*eA*eA) [compound 422121]”, the “% Inhibition (human Factor 7 mRNA)” value is reported as 43%.

same assay, conditions: Example 6 microwalk, nucleobases 15098 to 15122 of SEQ ID NO: 1; HepB3, lipofectin, 50 nM, ~24 h

First: 422209 (antisense eA*eG*e[5mC]*dA*d[5mC]*dA*d[5mC]*dA*dT*dG*dG*dA*dG*dT*d[5mC]*dA*dG*e[5mC]*eA*eT) [compound 422209]
Second: 422208 (antisense eG*e[5mC]*eA*d[5mC]*dA*d[5mC]*dA*dT*dG*dG*dA*dG*dT*d[5mC]*dA*dG*d[5mC]*eA*eT*e[5mC]) [compound 422208]
The “% Inhibition (human Factor 7 mRNA)” value of the first is lower: 47% for the first, 56% for the second.

First: 422207 (antisense e[5mC]*eA*e[5mC]*dA*d[5mC]*dA*dT*dG*dG*dA*dG*dT*d[5mC]*dA*dG*d[5mC]*dA*eT*e[5mC]*eG) [compound 422207]
Second: 422135 (antisense eA*eG*e[5mC]*eA*e[5mC]*dA*d[5mC]*dA*dT*dG*dG*dA*dG*dT*d[5mC]*eA*eG*e[5mC]*eA*eT) [compound 422135]
The “% Inhibition (human Factor 7 mRNA)” value of the first is lower: 41% for the first, 53% for the second.

same assay, conditions: HepB3 cells, lipofectin, 50 nM antisense oligonucleotide, approximately 24 hours, primer probe set RTS 2927, relative to untreated control

Going from “416484 (antisense eT*eA*e[5mC]*eA*eG*d[5mC]*d[5mC]*dT*d[5mC]*dA*dA*dA*d[5mC]*dA*dT*e[5mC]*eT*eA*eT*e[5mC]) [compound 416484]” to “416533 (antisense eG*e[5mC]*eA*eT*eT*d[5mC]*dT*dG*dG*dA*d[5mC]*d[5mC]*d[5mC]*dA*dG*eA*eT*eG*eA*e[5mC]) [compound 416533]”, the “% Inhibition of human Factor 7 mRNA levels” value rises from 0% to 41%.

Compared with “416518 (antisense eG*eG*eG*eT*eG*dA*d[5mC]*d[5mC]*dA*d[5mC]*dA*d[5mC]*dA*dT*dT*eT*e[5mC]*e[5mC]*eT*eG) [compound 416518]”, “416491 (antisense eG*eA*eG*eA*eA*dG*dG*dG*dT*dT*dG*d[5mC]*dA*dG*dG*e[5mC]*eA*eG*eG*eA) [compound 416491]” is lower in “% Inhibition of human Factor 7 mRNA levels” value: 55% for the first, 2% for the second.

First: 416557 (antisense eT*e[5mC]*e[5mC]*e[5mC]*eA*dG*dG*d[5mC]*dA*dA*dA*dG*d[5mC]*dT*dG*e[5mC]*eT*e[5mC]*eA*eG) [compound 416557]
Second: 416443 (antisense eG*eA*eG*eG*e[5mC]*dA*dG*dA*dA*dG*d[5mC]*dA*dG*dA*dT*eA*eT*eA*eG*eG) [compound 416443]
The “% Inhibition of human Factor 7 mRNA levels” value of the first is higher: 56% for the first, 17% for the second.

First: 416542 (antisense e[5mC]*eA*eG*eG*eG*dT*dG*d[5mC]*d[5mC]*d[5mC]*dA*dT*d[5mC]*d[5mC]*dT*eA*eG*eT*e[5mC]*eA) [compound 416542]
Second: 416423 (antisense eG*eT*eG*eT*eT*dT*d[5mC]*dT*d[5mC]*d[5mC]*dT*d[5mC]*d[5mC]*dT*dG*eA*eG*eG*e[5mC]*e[5mC]) [compound 416423]
The “% Inhibition of human Factor 7 mRNA levels” value of the first is higher: 56% for the first, 51% for the second.

First: 416499 (antisense eG*eA*eG*eA*eG*d[5mC]*dT*dG*d[5mC]*dA*d[5mC]*d[5mC]*dT*dG*dG*e[5mC]*e[5mC]*eG*eG*e[5mC]) [compound 416499]
Second: 416528 (antisense eT*eG*eA*eT*eA*dA*dA*dA*d[5mC]*d[5mC]*dT*d[5mC]*dT*dG*dG*eA*e[5mC]*eA*e[5mC]*e[5mC]) [compound 416528]
The “% Inhibition of human Factor 7 mRNA levels” value of the first is lower: 7% for the first, 10% for the second.

First: 416463 (antisense eT*eG*e[5mC]*eT*eG*d[5mC]*dA*dG*dG*d[5mC]*dA*dG*dT*d[5mC]*d[5mC]*eT*eG*eG*eG*eT) [compound 416463]
Second: 416433 (antisense eA*eG*eA*eA*eA*dT*d[5mC]*d[5mC]*dA*dG*dA*dA*d[5mC]*dA*dG*e[5mC]*eT*eT*e[5mC]*eG) [compound 416433]
The “% Inhibition of human Factor 7 mRNA levels” value of the first is higher: 39% for the first, 0% for the second.

First: 416534 (antisense eA*eT*eG*e[5mC]*eA*d[5mC]*dA*d[5mC]*d[5mC]*dA*dG*dG*dG*d[5mC]*dT*eG*e[5mC]*eT*eG*eG) [compound 416534]
Second: 416568 (antisense e[5mC]*eA*eT*eT*eG*dT*dG*d[5mC]*d[5mC]*dT*dG*dG*d[5mC]*dA*d[5mC]*eA*e[5mC]*eA*eG*eG) [compound 416568]
The “% Inhibition of human Factor 7 mRNA levels” value of the first is higher: 32% for the first, 14% for the second.

same assay, conditions: HepB3 cells; gapmers (5-10-5, 3-14-3, 2-13-5 MOE) targeted to nucleobases 4868 to 4899 of SEQ ID NO: 1

For “422141 (antisense eA*eG*eT*eT*e[5mC]*dT*dG*d[5mC]*dA*dG*dG*dA*dG*d[5mC]*dG*eG*e[5mC]*e[5mC]*eT*eA) [compound 422141]”, the “% Inhibition of human Factor 7 mRNA levels” value was 64%.

same assay, conditions: HepB3 cells; gapmers targeted to nucleobases 11830 to 11869 of SEQ ID NO: 1 (Table 9)

Compared with “422169 (antisense e[5mC]*eT*eG*dA*dG*dG*dA*dG*dA*d[5mC]*dA*dA*dT*dG*dG*dT*d[5mC]*eA*eG*eG) [compound 422169]”, “422165 (antisense eG*eG*eA*dG*dA*d[5mC]*dA*dA*dT*dG*dG*dT*d[5mC]*dA*dG*dG*dG*e[5mC]*eT*eG) [compound 422165]” is higher in “% Inhibition of human Factor 7 mRNA levels” value: 56% for the first, 57% for the second.

In the case of “422242 (antisense eG*eG*dA*dG*dA*d[5mC]*dA*dA*dT*dG*dG*dT*d[5mC]*dA*dG*eG*eG*e[5mC]*eT*eG) [compound 422242]”, the “% Inhibition of human Factor 7 mRNA levels” value is reported as 64%.

same assay, conditions: HepB3 cells; gapmers targeted to nucleobases 13760 to 13789 of SEQ ID NO: 1 (Table 10)

Going from “422108 (antisense e[5mC]*e[5mC]*eG*e[5mC]*e[5mC]*dG*dG*d[5mC]*dT*d[5mC]*dT*dG*d[5mC]*dT*d[5mC]*eA*eT*e[5mC]*e[5mC]*e[5mC]) [compound 422108]” to “422253 (antisense e[5mC]*e[5mC]*dG*d[5mC]*d[5mC]*dG*dG*d[5mC]*dT*d[5mC]*dT*dG*d[5mC]*dT*d[5mC]*eA*eT*e[5mC]*e[5mC]*e[5mC]) [compound 422253]”, the “% Inhibition of human Factor 7 mRNA levels” value falls from 69% to 61%.

Going from “422180 (antisense e[5mC]*e[5mC]*eA*d[5mC]*d[5mC]*d[5mC]*dG*d[5mC]*d[5mC]*dG*dG*d[5mC]*dT*d[5mC]*dT*dG*d[5mC]*eT*e[5mC]*eA) [compound 422180]” to “422184 (antisense eT*eG*e[5mC]*dG*d[5mC]*d[5mC]*dA*d[5mC]*d[5mC]*d[5mC]*dG*d[5mC]*d[5mC]*dG*dG*d[5mC]*dT*e[5mC]*eT*eG) [compound 422184]”, the “% Inhibition of human Factor 7 mRNA levels” value rises from 54% to 55%.

same assay, conditions: HepB3 cells; gapmers targeted to nucleobases 14707 to 14732 of SEQ ID NO: 1 (Table 11)

With “422281 (antisense eG*e[5mC]*dA*dG*d[5mC]*d[5mC]*dT*dG*dA*dG*dG*d[5mC]*d[5mC]*dA*dG*e[5mC]*eA*eG*eA*eT) [compound 422281]” the “% Inhibition of human Factor 7 mRNA levels” value was 57%.
